Test results: patent US10344060B2 (priority 2013, dated 2019)
Read-outs that look alike come from different tables or passages of the source.

Experiments:
Test in all cases: cell-based
[1] = biological target: hNav1.3 (Homo sapiens, UniProt Q9NY46); settings: read-out: IC50 (μM) Nav1.3
[2] = biological target: hNav1.4 (Homo sapiens, UniProt P35499); format: cell-based; settings: for IC50: read-out: IC50 (μM) Nav1.4; for Nav1.4/Nav1.7: ratio of IonWorks Quattro IC50 values
[3] = biological target: hNav1.5 (Homo sapiens, UniProt Q14524); settings: read-out: IC50 (μM) Nav1.5
[4] = biological target: hNav1.7 (Homo sapiens, UniProt Q15858); settings: for IC50: read-out: IC50 (μM) Nav1.7

hNav1.3, sequence (Q9NY46 whole entry): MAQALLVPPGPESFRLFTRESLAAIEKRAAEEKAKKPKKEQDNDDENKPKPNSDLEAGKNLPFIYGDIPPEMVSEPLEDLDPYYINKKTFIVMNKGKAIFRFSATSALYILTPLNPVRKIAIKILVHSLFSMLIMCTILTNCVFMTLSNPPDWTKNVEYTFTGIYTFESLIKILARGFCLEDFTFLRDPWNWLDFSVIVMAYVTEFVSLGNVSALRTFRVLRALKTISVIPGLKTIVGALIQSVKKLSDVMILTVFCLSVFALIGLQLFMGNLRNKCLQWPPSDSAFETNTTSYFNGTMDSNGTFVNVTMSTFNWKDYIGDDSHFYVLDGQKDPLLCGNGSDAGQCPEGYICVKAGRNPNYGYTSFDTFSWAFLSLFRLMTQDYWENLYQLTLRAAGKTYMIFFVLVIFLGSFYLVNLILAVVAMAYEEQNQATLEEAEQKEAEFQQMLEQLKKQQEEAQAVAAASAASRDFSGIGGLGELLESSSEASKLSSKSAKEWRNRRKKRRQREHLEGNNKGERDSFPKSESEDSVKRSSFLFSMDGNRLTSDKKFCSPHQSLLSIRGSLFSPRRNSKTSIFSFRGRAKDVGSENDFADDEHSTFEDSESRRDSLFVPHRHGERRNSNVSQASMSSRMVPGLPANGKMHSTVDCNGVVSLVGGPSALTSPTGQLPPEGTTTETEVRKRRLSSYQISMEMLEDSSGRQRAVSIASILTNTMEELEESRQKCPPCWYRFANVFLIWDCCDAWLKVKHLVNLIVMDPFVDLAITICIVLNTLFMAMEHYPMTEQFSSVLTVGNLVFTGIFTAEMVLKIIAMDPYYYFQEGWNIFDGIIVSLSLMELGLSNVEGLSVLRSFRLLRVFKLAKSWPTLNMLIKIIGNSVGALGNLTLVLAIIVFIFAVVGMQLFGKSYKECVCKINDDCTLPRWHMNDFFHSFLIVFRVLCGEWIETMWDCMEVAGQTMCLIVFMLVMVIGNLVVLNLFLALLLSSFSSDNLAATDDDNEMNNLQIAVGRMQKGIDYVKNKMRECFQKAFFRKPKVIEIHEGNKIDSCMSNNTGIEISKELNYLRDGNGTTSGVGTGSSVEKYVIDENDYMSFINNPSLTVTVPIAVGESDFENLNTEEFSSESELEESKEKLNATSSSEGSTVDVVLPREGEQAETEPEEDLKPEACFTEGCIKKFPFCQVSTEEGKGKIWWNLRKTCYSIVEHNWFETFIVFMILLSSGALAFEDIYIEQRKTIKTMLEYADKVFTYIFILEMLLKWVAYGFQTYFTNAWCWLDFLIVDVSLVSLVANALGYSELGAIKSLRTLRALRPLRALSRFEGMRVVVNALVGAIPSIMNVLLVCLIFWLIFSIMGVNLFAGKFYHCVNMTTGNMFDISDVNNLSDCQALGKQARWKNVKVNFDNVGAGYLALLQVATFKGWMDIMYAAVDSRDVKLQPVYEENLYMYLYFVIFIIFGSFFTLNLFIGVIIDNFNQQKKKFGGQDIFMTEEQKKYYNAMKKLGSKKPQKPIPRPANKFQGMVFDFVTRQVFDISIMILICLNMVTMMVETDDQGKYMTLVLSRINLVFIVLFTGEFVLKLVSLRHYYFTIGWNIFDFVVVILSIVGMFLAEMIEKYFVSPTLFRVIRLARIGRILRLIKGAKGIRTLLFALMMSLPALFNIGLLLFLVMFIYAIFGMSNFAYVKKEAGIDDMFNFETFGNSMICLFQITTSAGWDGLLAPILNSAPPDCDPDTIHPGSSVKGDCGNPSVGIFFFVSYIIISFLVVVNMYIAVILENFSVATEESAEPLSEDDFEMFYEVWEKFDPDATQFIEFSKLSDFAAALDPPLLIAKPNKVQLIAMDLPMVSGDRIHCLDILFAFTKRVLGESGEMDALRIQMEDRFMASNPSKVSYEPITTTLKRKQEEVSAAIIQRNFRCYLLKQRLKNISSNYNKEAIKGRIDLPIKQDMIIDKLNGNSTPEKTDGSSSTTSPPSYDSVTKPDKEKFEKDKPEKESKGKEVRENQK
hNav1.4, sequence (P35499 whole entry): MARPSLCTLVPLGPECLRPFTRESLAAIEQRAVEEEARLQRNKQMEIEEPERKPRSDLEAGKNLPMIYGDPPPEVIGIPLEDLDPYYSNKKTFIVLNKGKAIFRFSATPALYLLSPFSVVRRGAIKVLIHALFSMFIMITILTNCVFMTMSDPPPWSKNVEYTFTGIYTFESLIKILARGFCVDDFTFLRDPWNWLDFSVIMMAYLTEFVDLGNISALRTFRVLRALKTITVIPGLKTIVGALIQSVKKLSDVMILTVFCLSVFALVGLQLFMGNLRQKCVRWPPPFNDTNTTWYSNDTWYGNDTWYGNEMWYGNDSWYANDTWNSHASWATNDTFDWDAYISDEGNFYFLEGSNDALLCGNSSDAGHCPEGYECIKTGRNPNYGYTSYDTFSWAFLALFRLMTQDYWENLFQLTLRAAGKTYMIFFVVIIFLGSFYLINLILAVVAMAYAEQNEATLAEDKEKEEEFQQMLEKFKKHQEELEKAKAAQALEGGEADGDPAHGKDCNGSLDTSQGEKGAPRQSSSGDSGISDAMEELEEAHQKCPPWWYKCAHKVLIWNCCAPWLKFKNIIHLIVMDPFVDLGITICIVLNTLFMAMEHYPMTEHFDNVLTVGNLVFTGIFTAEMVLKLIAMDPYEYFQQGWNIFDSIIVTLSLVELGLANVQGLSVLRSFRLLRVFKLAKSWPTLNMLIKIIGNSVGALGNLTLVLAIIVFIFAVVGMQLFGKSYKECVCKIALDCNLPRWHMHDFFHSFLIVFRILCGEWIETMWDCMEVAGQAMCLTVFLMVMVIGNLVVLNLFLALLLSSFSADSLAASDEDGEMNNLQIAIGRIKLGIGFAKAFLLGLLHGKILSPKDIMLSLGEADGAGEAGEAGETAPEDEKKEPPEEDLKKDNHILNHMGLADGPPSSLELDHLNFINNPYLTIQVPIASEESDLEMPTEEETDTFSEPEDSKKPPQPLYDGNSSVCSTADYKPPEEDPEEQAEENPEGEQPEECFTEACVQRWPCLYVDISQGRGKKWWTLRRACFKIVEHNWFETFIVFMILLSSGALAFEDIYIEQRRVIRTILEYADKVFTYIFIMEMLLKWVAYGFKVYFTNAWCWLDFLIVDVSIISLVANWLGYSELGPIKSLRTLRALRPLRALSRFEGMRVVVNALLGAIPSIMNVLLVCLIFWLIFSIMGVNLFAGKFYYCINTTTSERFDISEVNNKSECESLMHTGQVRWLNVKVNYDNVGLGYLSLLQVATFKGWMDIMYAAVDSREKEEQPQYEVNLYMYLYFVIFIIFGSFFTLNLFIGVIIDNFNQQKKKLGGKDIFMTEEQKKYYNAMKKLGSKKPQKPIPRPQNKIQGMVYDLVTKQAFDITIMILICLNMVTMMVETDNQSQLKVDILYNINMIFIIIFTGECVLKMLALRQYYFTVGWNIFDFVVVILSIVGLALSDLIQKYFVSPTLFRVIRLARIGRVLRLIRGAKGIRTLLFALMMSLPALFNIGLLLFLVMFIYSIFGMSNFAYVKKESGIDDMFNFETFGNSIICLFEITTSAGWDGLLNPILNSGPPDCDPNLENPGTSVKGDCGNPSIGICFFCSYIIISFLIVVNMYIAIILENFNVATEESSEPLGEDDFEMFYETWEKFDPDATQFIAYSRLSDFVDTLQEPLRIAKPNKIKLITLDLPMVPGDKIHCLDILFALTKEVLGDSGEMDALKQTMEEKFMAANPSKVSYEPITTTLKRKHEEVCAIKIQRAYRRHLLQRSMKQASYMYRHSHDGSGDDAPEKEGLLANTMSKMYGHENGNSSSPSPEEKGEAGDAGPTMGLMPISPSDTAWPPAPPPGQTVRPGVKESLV

Compound	IC50 ([1]; IonWorks Quattro, Table 6) [µM]	IC50 ([2]; IonWorks Quattro, Table 6) [µM]	Nav1.4/Nav1.7 ([2]; Table 6)	IC50 ([3]; IonWorks Quattro, Table 6) [µM]	IC50 [4] [µM]	IC50 [1] [µM]	IC50 [2] [µM]	IC50 [3] [µM]	Nav1.4/Nav1.7 ([4]; ratio of IonWorks Quattro IC50 values, Nav1.4 over Nav1.7)
CC[C@H](C)[C@H](NC(=O)[C@@H](NC(=O)[C@H](CCCCN)NC(=O)[C@H](CCCNC(=N)N)NC(=O)[C@@H]1CSSC[C@@H]2NC(=O)[C@H](C)NC(=O)[C@H](CCCNC(=N)N)NC(=O)[C@H](CCCNC(=N)N)NC(=O)[C@H](CO)NC(=O)[C@H](CC(=O)O)NC(=O)[C@@H]3CSSC[C@H](NC(=O)[C@H](CCCNC(=N)N)NC(=O)[C@H](CC(C)C)NC(=O)CNC(=O)[C@H](CCC(=O)O)NC(=O)[C@H](CSSC[C@H](NC(=O)[C@@H](N)Cc4ccc(O)cc4)C(=O)N[C@@H](CCC(N)=O)C(=O)N[C@@H](CCCCN)C(=O)N[C@@H](Cc4c[nH]c5ccccc45)C(=O)N[C@@H](CCSC)C(=O)N[C@@H](Cc4c[nH]c5ccccc45)C(=O)N[C@@H]([C@@H](C)O)C(=O)N3)NC2=O)C(=O)N[C@@H](CCCCN)C(=O)N[C@@H](CC(C)C)C(=O)N[C@@H](Cc2c[nH]c3ccccc23)C(=O)N1)[C@@H](C)CC)C(N)=O [compound 99]	0.05	0.15	19	2.5	0.008				
CC[C@H](C)[C@H](NC(=O)[C@@H](NC(=O)[C@H](CCCCN)NC(=O)[C@H](CCCNC(=N)N)NC(=O)[C@@H]1CSSC[C@@H]2NC(=O)[C@H](CCCNC(=N)N)NC(=O)[C@H](CCCNC(=N)N)NC(=O)[C@H](CCCCN)NC(=O)[C@H](CO)NC(=O)[C@H](CC(=O)O)NC(=O)[C@@H]3CSSC[C@H](NC(=O)[C@H](CCCNC(=N)N)NC(=O)[C@H](CC(C)C)NC(=O)CNC(=O)[C@H](CCC(=O)O)NC(=O)[C@H](CSSC[C@H](NC(=O)[C@@H](N)Cc4ccc(O)cc4)C(=O)N[C@@H](CCC(N)=O)C(=O)N[C@@H](CCCCN)C(=O)N[C@@H](Cc4c[nH]c5ccccc45)C(=O)N[C@@H](CCSC)C(=O)N[C@@H](Cc4c[nH]c5ccccc45)C(=O)N[C@@H]([C@@H](C)O)C(=O)N3)NC2=O)C(=O)N[C@@H](CCCCN)C(=O)N[C@@H](CC(C)C)C(=O)N[C@@H](Cc2c[nH]c3ccccc23)C(=O)N1)[C@@H](C)CC)C(N)=O [compound 100]	0.04	0.08	11	1.4	0.008				
CC[C@H](C)[C@H](NC(=O)[C@@H](NC(=O)[C@H](CCCCN)NC(=O)[C@H](CCCNC(=N)N)NC(=O)[C@@H]1CSSC[C@@H]2NC(=O)[C@H](C)NC(=O)[C@H](CCCNC(=N)N)NC(=O)[C@H](CCCCN)NC(=O)[C@H](CO)NC(=O)[C@H](CC(=O)O)NC(=O)[C@@H]3CSSC[C@H](NC(=O)[C@H](CCCNC(=N)N)NC(=O)[C@H](CC(C)C)NC(=O)CNC(=O)[C@H](CCCNC(=N)N)NC(=O)[C@H](CSSC[C@H](NC(=O)[C@@H](N)Cc4ccc(O)cc4)C(=O)N[C@@H](CCC(N)=O)C(=O)N[C@@H](CCCCN)C(=O)N[C@@H](Cc4c[nH]c5ccccc45)C(=O)N[C@@H](CCSC)C(=O)N[C@@H](Cc4c[nH]c5ccccc45)C(=O)N[C@@H]([C@@H](C)O)C(=O)N3)NC2=O)C(=O)N[C@@H](CCCCN)C(=O)N[C@@H](CC(C)C)C(=O)N[C@@H](Cc2c[nH]c3ccccc23)C(=O)N1)[C@@H](C)CC)C(N)=O [compound 101]	0.04	0.06	4	0.95	0.014				
CC[C@H](C)[C@H](NC(=O)[C@@H](NC(=O)[C@H](CCCCN)NC(=O)[C@H](CCCNC(=N)N)NC(=O)[C@@H]1CSSC[C@@H]2NC(=O)[C@H](C)NC(=O)[C@H](CCCNC(=N)N)NC(=O)[C@H](CCCCN)NC(=O)[C@H](CO)NC(=O)[C@H](CC(=O)O)NC(=O)[C@@H]3CSSC[C@H](NC(=O)[C@H](CCCNC(=N)N)NC(=O)[C@H](CC(C)C)NC(=O)CNC(=O)[C@H](CCC(=O)O)NC(=O)[C@H](CSSC[C@H](NC(=O)[C@@H](N)Cc4ccc(O)cc4)C(=O)N[C@@H](CCC(N)=O)C(=O)N[C@@H](CCCCN)C(=O)N[C@@H](Cc4c[nH]c5ccccc45)C(=O)N[C@@H](CCSC)C(=O)N[C@@H](Cc4c[nH]c5ccccc45)C(=O)N[C@@H]([C@@H](C)O)C(=O)N3)NC2=O)C(=O)N[C@@H](CCCNC(=N)N)C(=O)N[C@@H](CC(C)C)C(=O)N[C@@H](Cc2c[nH]c3ccccc23)C(=O)N1)[C@@H](C)CC)C(N)=O [compound 104]	0.08	0.17	11	2	0.016				
CC[C@H](C)[C@H](NC(=O)[C@@H](NC(=O)[C@H](CCCCN)NC(=O)[C@H](CCCNC(=N)N)NC(=O)[C@@H]1CSSC[C@@H]2NC(=O)[C@H](C)NC(=O)[C@H](CCCNC(=N)N)NC(=O)[C@H](CCCCN)NC(=O)[C@H](CO)NC(=O)[C@H](CC(=O)O)NC(=O)[C@@H]3CSSC[C@H](NC(=O)[C@H](CCCNC(=N)N)NC(=O)[C@H](CC(C)C)NC(=O)CNC(=O)[C@H](CCC(=O)O)NC(=O)[C@H](CSSC[C@H](NC(=O)[C@@H](N)Cc4ccc(O)cc4)C(=O)N[C@@H](CCC(N)=O)C(=O)N[C@@H](CCCCN)C(=O)N[C@@H](Cc4c[nH]c5ccccc45)C(=O)N[C@@H](CCSC)C(=O)N[C@@H](Cc4c[nH]c5ccccc45)C(=O)N[C@@H]([C@@H](C)O)C(=O)N3)NC2=O)C(=O)N[C@@H](CCCCN)C(=O)N[C@@H](CCCNC(=N)N)C(=O)N[C@@H](Cc2c[nH]c3ccccc23)C(=O)N1)[C@@H](C)CC)C(N)=O [compound 105]	0.15	0.21	1	2.8	0.15				
CC[C@H](C)[C@H](NC(=O)[C@@H](NC(=O)[C@H](CCCCN)NC(=O)[C@H](CCCNC(=N)N)NC(=O)[C@@H]1CSSC[C@@H]2NC(=O)[C@H](C)NC(=O)[C@H](CCCNC(=N)N)NC(=O)[C@H](CCCCN)NC(=O)[C@H](CO)NC(=O)[C@H](CC(=O)O)NC(=O)[C@@H]3CSSC[C@H](NC(=O)[C@H](CCCNC(=N)N)NC(=O)[C@H](CC(C)C)NC(=O)CNC(=O)[C@H](CCC(=O)O)NC(=O)[C@H](CSSC[C@H](NC(=O)[C@@H](N)Cc4ccc(O)cc4)C(=O)N[C@@H](CCC(N)=O)C(=O)N[C@@H](CCCCN)C(=O)N[C@@H](Cc4c[nH]c5ccccc45)C(=O)N[C@@H](CCSC)C(=O)N[C@@H](Cc4c[nH]c5ccccc45)C(=O)N[C@@H]([C@@H](C)O)C(=O)N3)NC2=O)C(=O)N[C@@H](CCCCN)C(=O)N[C@@H](CC(C)C)C(=O)N[C@@H](CCCNC(=N)N)C(=O)N1)[C@@H](C)CC)C(N)=O [compound 106]	4.8	2.5	1	> 5	5				
CC[C@H](C)[C@H](NC(=O)[C@@H](NC(=O)[C@H](CCCNC(=N)N)NC(=O)[C@H](CCCNC(=N)N)NC(=O)[C@@H]1CSSC[C@@H]2NC(=O)[C@H](C)NC(=O)[C@H](CCCNC(=N)N)NC(=O)[C@H](CCCCN)NC(=O)[C@H](CO)NC(=O)[C@H](CC(=O)O)NC(=O)[C@@H]3CSSC[C@H](NC(=O)[C@H](CCCNC(=N)N)NC(=O)[C@H](CC(C)C)NC(=O)CNC(=O)[C@H](CCC(=O)O)NC(=O)[C@H](CSSC[C@H](NC(=O)[C@@H](N)Cc4ccc(O)cc4)C(=O)N[C@@H](CCC(N)=O)C(=O)N[C@@H](CCCCN)C(=O)N[C@@H](Cc4c[nH]c5ccccc45)C(=O)N[C@@H](CCSC)C(=O)N[C@@H](Cc4c[nH]c5ccccc45)C(=O)N[C@@H]([C@@H](C)O)C(=O)N3)NC2=O)C(=O)N[C@@H](CCCCN)C(=O)N[C@@H](CC(C)C)C(=O)N[C@@H](Cc2c[nH]c3ccccc23)C(=O)N1)[C@@H](C)CC)C(N)=O [compound 107]	0.1	0.23	8	> 5	0.028				
CC[C@H](C)[C@H](NC(=O)[C@H](CCCCN)NC(=O)[C@H](CCCNC(=N)N)NC(=O)[C@@H]1CSSC[C@@H]2NC(=O)[C@H](C)NC(=O)[C@H](CCCNC(=N)N)NC(=O)[C@H](CCCCN)NC(=O)[C@H](CO)NC(=O)[C@H](CC(=O)O)NC(=O)[C@@H]3CSSC[C@H](NC(=O)[C@H](CCCNC(=N)N)NC(=O)[C@H](CC(C)C)NC(=O)CNC(=O)[C@H](CCC(=O)O)NC(=O)[C@H](CSSC[C@H](NC(=O)[C@@H](N)Cc4ccc(O)cc4)C(=O)N[C@@H](CCC(N)=O)C(=O)N[C@@H](CCCCN)C(=O)N[C@@H](Cc4c[nH]c5ccccc45)C(=O)N[C@@H](CCSC)C(=O)N[C@@H](Cc4c[nH]c5ccccc45)C(=O)N[C@@H]([C@@H](C)O)C(=O)N3)NC2=O)C(=O)N[C@@H](CCCCN)C(=O)N[C@@H](CC(C)C)C(=O)N[C@@H](Cc2c[nH]c3ccccc23)C(=O)N1)C(=O)N[C@@H](CCCNC(=N)N)C(N)=O [compound 109]	1.3	1.1	16	> 5	0.067				
CC[C@@H]1NC(=O)[C@H](CC(C)C)NC(=O)CNC(=O)[C@H](CCC(=O)O)NC(=O)[C@@H]2CSSC[C@H](NC(=O)[C@@H](N)Cc3ccc(O)cc3)C(=O)N[C@@H](CCC(N)=O)C(=O)N[C@@H](CCCCN)C(=O)N[C@@H](Cc3c[nH]c4ccccc34)C(=O)N[C@@H](CCSC)C(=O)N[C@@H](Cc3c[nH]c4ccccc34)C(=O)N[C@@H]([C@@H](C)O)C(=O)N[C@H]3CSSC[C@H](NC1=O)C(=O)N[C@@H](CCCCN)C(=O)N[C@@H](CC(C)C)C(=O)N[C@@H](Cc1c[nH]c4ccccc14)C(=O)N[C@H](C(=O)N[C@@H](CCCNC(=N)N)C(=O)N[C@@H](CCCCN)C(=O)N[C@H](C(=O)N[C@H](C(N)=O)[C@@H](C)CC)[C@@H](C)CC)CSSC[C@H](NC(=O)[C@H](C)NC(=O)[C@H](CCCNC(=N)N)NC(=O)[C@H](CCCCN)NC(=O)[C@H](CO)NC(=O)[C@H](CC(=O)O)NC3=O)C(=O)N2 [compound 117]					0.05	0.97	0.9	10.6	19
